From the supplement of paper PMC11451515

Key:
Details in all cases: 48 h
[1] = test system: P12-Ichikawa; assay: AUC of viability dose-response curve (% viability x log10 dose units); higher = less sensitive
Method in brief: (§1)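 Leukemia cells adapted to each medium (500 or 1000 cells/well, 1536-well plates) were exposed to library compounds in DMSO for 48 h at 37°C at 11 threefold doses, 47 μM to 0.79 nM. Luminescence by CellTiter-Glo One was normalised per plate to DMSO and cell-free wells, then fitted with a four-parameter log-logistic curve on log10 dose. Curves above full viability were scaled and quality-control failures removed before area under the curve was integrated by trapezoidal rule.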

[2] = test system: SEM cells; assay: as above
Method in brief: as §1

[3] = test system: NOMO1; assay: as above
Method in brief: as §1

[4] = test system: P12-Ichikawa; assay: cell viability relative to DMSO control; higher = less cytotoxic
Method in brief: (§2)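 Viability is a per-plate percentage relative to DMSO wells, with cell-free wells as background. CellTiter-Glo One luminescence was read after 48 h at 37°C on 1536-well plates (5 μl) of NOMO1 or SEM (500 cells/well) or P12-Ichikawa (1000 cells/well) leukemia cells. The cells had been adapted for at least four passages in each medium and pin-dosed with library compounds in DMSO from 47 μM to 0.79 nM in 11 threefold steps.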

[5] = test system: SEM cells; assay: as above
Method in brief: as §2

[6] = test system: NOMO1; assay: as above
Method in brief: as §2

Cc1ccc2nc(NCCN)c3ncc(C)n3c2c1
AUC of viability dose-response curve
Details	[1]	[2]	[3]
HPLM + 10% dialyzed FBS	458	413	446
RPMI 5 mM glucose + 10% FBS	455	440	422
RPMI 5 mM glucose + 10% dialyzed FBS	460	430	437

cell viability [%]
Details	[4]	[5]	[6]
HPLM + 10% dialyzed FBS, 0.000781 µM	104	104	116
HPLM + 10% dialyzed FBS, 0.00234 µM	105	112	99.9
HPLM + 10% dialyzed FBS, 0.00702 µM	106	111	121
HPLM + 10% dialyzed FBS, 0.0211 µM	101	106	104
HPLM + 10% dialyzed FBS, 0.0632 µM	106	122	108
HPLM + 10% dialyzed FBS, 0.19 µM	104	113	107
HPLM + 10% dialyzed FBS, 0.569 µM	103	106	105
HPLM + 10% dialyzed FBS, 1.71 µM	105	101	101
HPLM + 10% dialyzed FBS, 5.12 µM	109	102	113
HPLM + 10% dialyzed FBS, 15.4 µM	94.8	23.2	88.7
HPLM + 10% dialyzed FBS, 46.1 µM	42.5	5.23	8.31
RPMI 5 mM glucose + 10% FBS, 0.000781 µM	97.8	111	88.1
RPMI 5 mM glucose + 10% FBS, 0.00234 µM	111	108	92.2
RPMI 5 mM glucose + 10% FBS, 0.00702 µM	105	129	91.9
RPMI 5 mM glucose + 10% FBS, 0.0211 µM	107	110	94.1
RPMI 5 mM glucose + 10% FBS, 0.0632 µM	107	122	98.1
RPMI 5 mM glucose + 10% FBS, 0.19 µM	108	119	98.4
RPMI 5 mM glucose + 10% FBS, 0.569 µM	102	123	100
RPMI 5 mM glucose + 10% FBS, 1.71 µM	104	102	87.8
RPMI 5 mM glucose + 10% FBS, 5.12 µM	102	108	90.2
RPMI 5 mM glucose + 10% FBS, 15.4 µM	97.4	86.4	84.9
RPMI 5 mM glucose + 10% FBS, 46.1 µM	23.2	5.06	11.3
RPMI 5 mM glucose + 10% dialyzed FBS, 0.000781 µM	102	94.9	87.9
RPMI 5 mM glucose + 10% dialyzed FBS, 0.00234 µM	110	110	95.8
RPMI 5 mM glucose + 10% dialyzed FBS, 0.00702 µM	104	94.9	104
RPMI 5 mM glucose + 10% dialyzed FBS, 0.0211 µM	105	94.5	104
RPMI 5 mM glucose + 10% dialyzed FBS, 0.0632 µM	104	101	99
RPMI 5 mM glucose + 10% dialyzed FBS, 0.19 µM	91	106	96
RPMI 5 mM glucose + 10% dialyzed FBS, 0.569 µM	101	111	95.6
RPMI 5 mM glucose + 10% dialyzed FBS, 1.71 µM	102	77.7	96.7
RPMI 5 mM glucose + 10% dialyzed FBS, 5.12 µM	103	91	100
RPMI 5 mM glucose + 10% dialyzed FBS, 15.4 µM	101	67.4	81.6
RPMI 5 mM glucose + 10% dialyzed FBS, 46.1 µM	33.7	4.44	7.57

COCCn1c2c([n+](Cc3cnccn3)c1C)C(=O)c1ccccc1C2=O
AUC of viability dose-response curve
Details	[1]	[2]	[3]
HPLM + 10% dialyzed FBS	251	161	194
RPMI 5 mM glucose + 10% FBS	247	209	232
RPMI 5 mM glucose + 10% dialyzed FBS	244	189	223

cell viability [%]
Details	[4]	[5]	[6]
HPLM + 10% dialyzed FBS, 0.000781 µM	116	128	–
HPLM + 10% dialyzed FBS, 0.00234 µM	115	113	–
HPLM + 10% dialyzed FBS, 0.00702 µM	113	123	–
HPLM + 10% dialyzed FBS, 0.0211 µM	112	50.7	–
HPLM + 10% dialyzed FBS, 0.0632 µM	104	23.5	–
HPLM + 10% dialyzed FBS, 0.19 µM	51.4	11.2	–
HPLM + 10% dialyzed FBS, 0.569 µM	41.9	7.74	–
HPLM + 10% dialyzed FBS, 1.71 µM	15.8	8.7	–
HPLM + 10% dialyzed FBS, 5.12 µM	5.02	8.71	–
HPLM + 10% dialyzed FBS, 15.4 µM	2.55	4.23	–
HPLM + 10% dialyzed FBS, 46.1 µM	1.1	3.41	–
RPMI 5 mM glucose + 10% FBS, 0.000781 µM	110	116	127
RPMI 5 mM glucose + 10% FBS, 0.00234 µM	108	128	123
RPMI 5 mM glucose + 10% FBS, 0.00702 µM	118	114	113
RPMI 5 mM glucose + 10% FBS, 0.0211 µM	106	110	112
RPMI 5 mM glucose + 10% FBS, 0.0632 µM	112	71.4	104
RPMI 5 mM glucose + 10% FBS, 0.19 µM	48.9	15.5	35.3
RPMI 5 mM glucose + 10% FBS, 0.569 µM	17.6	7.97	7.45
RPMI 5 mM glucose + 10% FBS, 1.71 µM	6.76	8.06	6.58
RPMI 5 mM glucose + 10% FBS, 5.12 µM	3.92	5.61	6.62
RPMI 5 mM glucose + 10% FBS, 15.4 µM	3.27	4.16	4.16
RPMI 5 mM glucose + 10% FBS, 46.1 µM	2.14	2.77	1.59
RPMI 5 mM glucose + 10% dialyzed FBS, 0.000781 µM	113	105	–
RPMI 5 mM glucose + 10% dialyzed FBS, 0.00234 µM	108	132	–
RPMI 5 mM glucose + 10% dialyzed FBS, 0.00702 µM	112	117	–
RPMI 5 mM glucose + 10% dialyzed FBS, 0.0211 µM	110	91.1	–
RPMI 5 mM glucose + 10% dialyzed FBS, 0.0632 µM	106	46.2	–
RPMI 5 mM glucose + 10% dialyzed FBS, 0.19 µM	51.4	12.6	–
RPMI 5 mM glucose + 10% dialyzed FBS, 0.569 µM	11.7	8.08	–
RPMI 5 mM glucose + 10% dialyzed FBS, 1.71 µM	5.22	7.35	–
RPMI 5 mM glucose + 10% dialyzed FBS, 5.12 µM	3.6	5.94	–
RPMI 5 mM glucose + 10% dialyzed FBS, 15.4 µM	2.56	4.15	–
RPMI 5 mM glucose + 10% dialyzed FBS, 46.1 µM	1.9	3.55	–
